We go through 4 compounds from patent publication US10519114B2, “Peptidomimetics and methods of using the same” (The Regents of the University of Michigan, priority 2016, dated 2019).

For one test, the target named is T1, rat μ (C6-MOR) opioid receptor (Rattus norvegicus, UniProt P33535).
T1 construct: expressed in transfected cells
T1 sequence (P33535 whole entry): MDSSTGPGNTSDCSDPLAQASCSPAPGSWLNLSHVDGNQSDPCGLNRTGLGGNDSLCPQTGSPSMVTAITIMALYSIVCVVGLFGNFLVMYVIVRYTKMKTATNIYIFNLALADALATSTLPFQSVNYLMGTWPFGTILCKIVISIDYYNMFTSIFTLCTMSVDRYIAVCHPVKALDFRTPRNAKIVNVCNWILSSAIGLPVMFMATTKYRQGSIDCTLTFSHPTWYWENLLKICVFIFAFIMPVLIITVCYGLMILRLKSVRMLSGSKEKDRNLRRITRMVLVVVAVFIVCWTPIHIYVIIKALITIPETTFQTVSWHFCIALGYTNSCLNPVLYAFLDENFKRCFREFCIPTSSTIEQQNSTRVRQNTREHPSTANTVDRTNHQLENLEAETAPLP
Kind of test: Stimulation of [35S]GTPγS binding, MOR. It counts as biochemical. The following applies: [35S]GTPγS binding, C6-MOR membranes; mean ± standard error. The procedure, abridged:
(§1)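 Membranes (10–20 μg protein) from C6 glioma cells expressing rat MOR or DOR, or CHO cells expressing human KOR, were incubated 1 h at room temperature with 0.1 nM [35S]GTPγS, 30 μM GDP and test peptides in Tris buffer pH 7.4. Bound label was filtered and counted; maximal stimulation, by nonlinear regression, was relative to 10 μM DAMGO (MOR), DPDPE (DOR) or U69,593 (KOR).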
In general terms: GTPγS resists hydrolysis and so accumulates on activated G proteins.
On to `Cc1cc(O)cc(C)c1C[C@H](N)C(=O)N[C@@H]1CCNc2ccc(Cc3c(Cl)cccc3Cl)cc21` [Compound 1032], for which a half-maximal response (EC50) required 2040 nM. That is a single-digit micromolar value.
On the same count and under the same terms, next, `Cc1cc(O)cc(C)c1C[C@H](N)C(=O)N[C@@H]1CCNc2ccc(-c3ccccc3)cc21` [Compound 1068]: 11.8 ± 5.77 nM.

Staying with this test, now noted: [35S]GTPγS maximal stimulation compared with 10 μM standard DAMGO.
As for `Cc1ccc(Cc2ccc3c(c2)[C@@H](NC(=O)[C@@H](N)Cc2c(C)cc(O)cc2C)CCN3)cc1` [Compound 1008], the Emax came to 55%.
For `Cc1cc(O)cc(C)c1C[C@H](N)C(=O)N[C@@H]1CCCc2ccc(-c3cccc4ccccc34)cc21` [Compound 1115], the Emax came out at 0.34 ± 3.26%.
Still for that read-out and setting: with `Cc1cc(O)cc(C)c1C[C@H](N)C(=O)N[C@@H]1CCNc2ccc(Cc3c(Cl)cccc3Cl)cc21` [Compound 1032] the figure was 33.6%.
On the same count and under the same terms, next, `Cc1cc(O)cc(C)c1C[C@H](N)C(=O)N[C@@H]1CCNc2ccc(-c3ccccc3)cc21` [Compound 1068]: 23.7 ± 5.88%.

A further test deals with T2, human κ (CHO-KOR) opioid receptor (Homo sapiens, UniProt P41145).
T2 construct: expressed in transfected cells
T2 sequence (P41145 whole entry): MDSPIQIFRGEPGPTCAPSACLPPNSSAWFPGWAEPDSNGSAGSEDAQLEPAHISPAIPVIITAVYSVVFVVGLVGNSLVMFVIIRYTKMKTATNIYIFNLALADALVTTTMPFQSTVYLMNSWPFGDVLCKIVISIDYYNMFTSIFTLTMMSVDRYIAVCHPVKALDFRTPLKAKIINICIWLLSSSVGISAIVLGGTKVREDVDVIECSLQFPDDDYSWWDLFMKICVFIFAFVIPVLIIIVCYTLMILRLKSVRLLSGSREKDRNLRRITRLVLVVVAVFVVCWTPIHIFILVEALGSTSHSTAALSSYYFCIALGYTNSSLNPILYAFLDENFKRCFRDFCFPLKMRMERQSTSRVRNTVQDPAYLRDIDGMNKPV
In words: Radioligand binding assay, [3H]diprenorphine displacement, KOR. The following applies: displacement of 0.2 nM [3H]diprenorphine, CHO-KOR membranes; mean ± standard error. The procedure, abridged: (§2)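 Competitive displacement of 0.2 nM [3H]diprenorphine is measured on 20 μg membrane protein from C6-MOR, C6-DOR or CHO-KOR cells in 50 mM Tris-HCl, pH 7.4. Binding equilibrates for 1 h at room temperature; naloxone (10 μM) defines nonspecific binding.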
Regarding `Cc1ccc(Cc2ccc3c(c2)[C@@H](NC(=O)[C@@H](N)Cc2c(C)cc(O)cc2C)CCN3)cc1` [Compound 1008], the Ki amounted to 50 nM.
The same measure, in the same setting: with `Cc1cc(O)cc(C)c1C[C@H](N)C(=O)N[C@@H]1CCCc2ccc(-c3cccc4ccccc34)cc21` [Compound 1115] the figure was 131 ± 42.3 nM; with `Cc1cc(O)cc(C)c1C[C@H](N)C(=O)N[C@@H]1CCNc2ccc(Cc3c(Cl)cccc3Cl)cc21` [Compound 1032], 4.85 ± 0.66 nM; with `Cc1cc(O)cc(C)c1C[C@H](N)C(=O)N[C@@H]1CCNc2ccc(-c3ccccc3)cc21` [Compound 1068], 165 ± 110 nM.

In another test the target is T3, rat δ (C6-DOR) opioid receptor (Rattus norvegicus, UniProt P33533).
T3 construct: expressed in transfected cells
T3 sequence (P33533 whole entry): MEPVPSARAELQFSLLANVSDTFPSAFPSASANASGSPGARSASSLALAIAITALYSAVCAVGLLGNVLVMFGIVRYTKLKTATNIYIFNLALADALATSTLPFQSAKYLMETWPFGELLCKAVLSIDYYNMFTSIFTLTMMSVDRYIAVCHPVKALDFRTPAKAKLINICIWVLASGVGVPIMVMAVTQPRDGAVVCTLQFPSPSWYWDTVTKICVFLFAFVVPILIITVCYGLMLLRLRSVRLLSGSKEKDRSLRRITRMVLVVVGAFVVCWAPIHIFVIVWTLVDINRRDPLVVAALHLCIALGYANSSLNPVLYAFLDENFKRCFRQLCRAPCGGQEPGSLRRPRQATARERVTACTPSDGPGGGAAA
Kind of test: Radioligand binding assay, [3H]diprenorphine displacement, DOR. The following applies: displacement of 0.2 nM [3H]diprenorphine, C6-DOR membranes; mean ± standard error. The procedure, abridged:
as §2
`Cc1ccc(Cc2ccc3c(c2)[C@@H](NC(=O)[C@@H](N)Cc2c(C)cc(O)cc2C)CCN3)cc1` [Compound 1008]: the affinity corresponds to a Ki of 582 nM.
The compound `Cc1cc(O)cc(C)c1C[C@H](N)C(=O)N[C@@H]1CCCc2ccc(-c3cccc4ccccc34)cc21` [Compound 1115] yielded a Ki of 45.5 ± 26.9 nM.
The same measure, in the same setting: next, `Cc1cc(O)cc(C)c1C[C@H](N)C(=O)N[C@@H]1CCNc2ccc(Cc3c(Cl)cccc3Cl)cc21` [Compound 1032]: 4.61 ± 0.06 nM.
On the same count and under the same terms, next, `Cc1cc(O)cc(C)c1C[C@H](N)C(=O)N[C@@H]1CCNc2ccc(-c3ccccc3)cc21` [Compound 1068]: 13.4 ± 4.32 nM.

The target in the next test is T1, rat μ (C6-MOR) opioid receptor. In words: Radioligand binding assay, [3H]diprenorphine displacement, MOR. The following applies: displacement of 0.2 nM [3H]diprenorphine, C6-MOR membranes; mean ± standard error. The procedure, abridged:
as §2
Turning to `Cc1ccc(Cc2ccc3c(c2)[C@@H](NC(=O)[C@@H](N)Cc2c(C)cc(O)cc2C)CCN3)cc1` [Compound 1008], affinity was put at a Ki of 11 nM.
The same measure, in the same setting: with `Cc1cc(O)cc(C)c1C[C@H](N)C(=O)N[C@@H]1CCCc2ccc(-c3cccc4ccccc34)cc21` [Compound 1115] the figure was 5.44 ± 2.7 nM; with `Cc1cc(O)cc(C)c1C[C@H](N)C(=O)N[C@@H]1CCNc2ccc(Cc3c(Cl)cccc3Cl)cc21` [Compound 1032], 0.08 ± 0.01 nM.
Regarding `Cc1cc(O)cc(C)c1C[C@H](N)C(=O)N[C@@H]1CCNc2ccc(-c3ccccc3)cc21` [Compound 1068], affinity was put at a Ki of 1.11 ± 0.44 nM.

Another test deals with T2, human κ (CHO-KOR) opioid receptor. In words: Stimulation of [35S]GTPγS binding, KOR. It counts as biochemical. The following applies: [35S]GTPγS binding, CHO-KOR membranes; mean ± standard error. Here is the method: In Vitro Pharmacology-Cell Lines and Membrane Preparations. All tissue culture reagents were purchased from Gibco Life Sciences (Grand Island, N.Y., U.S.). C6-rat glioma cells stably transfected with a rat μ (C6-MOR) or rat δ (C6-DOR) opioid receptor20 and Chinese hamster ovary (CHO) cells stably expressing a human K (CHO-KOR) opioid receptor21 were used for all in vitro assays. Cells were grown to confluence at 37° C. in 5% CO2 in Dulbecco's modified Eagle medium containing 10% fetal bovine serum and 5% penicillin/streptomycin. Membranes were prepared by washing confluent cells three times with ice cold phosphate buffered saline (0.9% NaCl, 0.61 mM Na2HPO4, 0.38 mM KH2PO4, pH 7.4). Cells were detached from the plates by incubation in warm harvesting buffer (20 mM HEPES, 150 mM NaCl, 0.68 mM EDTA, pH 7.4) and pelleted by centrifugation at 200 g for 3 min. The cell pellet was suspended in ice-cold 50 mM Tris-HCl buffer, pH 7.4, and homogenized with a Tissue Tearor (Biospec Products, Inc., Bartlesville, Okla., U.S.) for 20 s at setting 4. The homogenate was centrifuged at 20 000 g for 20 min at 4° C., and the pellet was rehomogenized in 50 mM Tris-HCl with a Tissue Tearor for 10 s at setting 2, followed by recentrifugation. The final pellet was resuspended in 50 mM Tris-HCl and frozen in aliquots at […]. Protein concentration was determined via Bradford assay using bovine serum albumin as the standard.
Stimulation of [^35S]GTPyS Binding. Agonist stimulation of [35S]guanosine 5′-O-[γ-thio]triphosphate ([^35S]GTPγS, 1250 Ci, 46.2 TBq/mmol) binding was measured as described previously Briefly, membranes (10-20 μg of protein/tube) were incubated 1 h at room temperature in GTPyS buffer (50 mM Tris-HCl, 100 mM NaCl, 5 mM MgCl2, pH 7.4) containing 0.1 nM [^35S]GTPγS, 30 μM guanosine diphosphate (GDP), and varying concentrations of test peptides. Peptide stimulation of [^35S]GTPyS was compared with 10 μM standard compounds [D-Ala^2,N-MePhe^4,Gly-ol]encephalin (DAMGO) at MOR, D-Pen^2,5-enkephalin (DPDPE) at DOR, or […] at KOR. The reaction was terminated by rapidly filtering through GF/C filters and washing 10 times with GTPyS buffer, and retained radioactivity was measured as described above. The results presented are the mean±standard error from at least three separate assays performed in duplicate; maximal stimulation was determined using nonlinear regression analysis with GraphPad Prism (GraphPad Software Inc., La Jolla, Calif.).
`Cc1cc(O)cc(C)c1C[C@H](N)C(=O)N[C@@H]1CCCc2ccc(-c3cccc4ccccc34)cc21` [Compound 1115]: the EC50 was 200 nM.
Compound `Cc1cc(O)cc(C)c1C[C@H](N)C(=O)N[C@@H]1CCNc2ccc(-c3ccccc3)cc21` [Compound 1068] displayed an EC50 of 933 ± 219 nM.

Still in this test, the particulars now being: [35S]GTPγS maximal stimulation compared with 10 μM standard U-69,593.
On to `Cc1ccc(Cc2ccc3c(c2)[C@@H](NC(=O)[C@@H](N)Cc2c(C)cc(O)cc2C)CCN3)cc1` [Compound 1008], for which the Emax came to 0%.
Still for that read-out and setting: with `Cc1cc(O)cc(C)c1C[C@H](N)C(=O)N[C@@H]1CCCc2ccc(-c3cccc4ccccc34)cc21` [Compound 1115] the figure was 3.82 ± 3.2%.
For `Cc1cc(O)cc(C)c1C[C@H](N)C(=O)N[C@@H]1CCNc2ccc(Cc3c(Cl)cccc3Cl)cc21` [Compound 1032], the Emax is 0%.
Turning to `Cc1cc(O)cc(C)c1C[C@H](N)C(=O)N[C@@H]1CCNc2ccc(-c3ccccc3)cc21` [Compound 1068], the Emax amounted to 57.1 ± 2.63%.

The target of another test is T3, rat δ (C6-DOR) opioid receptor. Kind of test: Stimulation of [35S]GTPγS binding, DOR. It counts as biochemical. To be noted: [35S]GTPγS binding, C6-DOR membranes; mean ± standard error. The procedure, abridged: as §1
With `Cc1cc(O)cc(C)c1C[C@H](N)C(=O)N[C@@H]1CCNc2ccc(Cc3c(Cl)cccc3Cl)cc21` [Compound 1032], the “EC50 (nm) DOR” value is listed as “dns”.
On the same count and under the same terms, with `Cc1cc(O)cc(C)c1C[C@H](N)C(=O)N[C@@H]1CCNc2ccc(-c3ccccc3)cc21` [Compound 1068] the entry was “dns”.

The test is the same for the next values; noted with them: [35S]GTPγS maximal stimulation compared with 10 μM standard DPDPE.
`Cc1ccc(Cc2ccc3c(c2)[C@@H](NC(=O)[C@@H](N)Cc2c(C)cc(O)cc2C)CCN3)cc1` [Compound 1008]: the Emax stood at 3%.
As to `Cc1cc(O)cc(C)c1C[C@H](N)C(=O)N[C@@H]1CCCc2ccc(-c3cccc4ccccc34)cc21` [Compound 1115], the Emax is -2.57 ± 4.3%.
`Cc1cc(O)cc(C)c1C[C@H](N)C(=O)N[C@@H]1CCNc2ccc(Cc3c(Cl)cccc3Cl)cc21` [Compound 1032]: the “% stimulation DOR” value was “dns”.
On the same count and under the same terms, with `Cc1cc(O)cc(C)c1C[C@H](N)C(=O)N[C@@H]1CCNc2ccc(-c3ccccc3)cc21` [Compound 1068] the entry was “dns”.

One may read the EC50 as the concentration needed to bring the measured effect to its halfway point. Lower therefore signals an effect from little substance. Usually Emax stands for the maximal effect, on the per cent scale that the assay sets. Broadly, the Ki is a measure of affinity in units of concentration, obtained from inhibition or displacement.
